Patent US4147797A, “Spiro-furanohydantoin derivatives” (Pfizer Inc., priority 1978, dated 1979)

How the values were obtained:
[1] = system: sorbitol accumulation in the sciatic nerve of streptozotocinized (i.e., diabetic) rats; test: inhibition of sorbitol accumulation in the sciatic nerve of streptozotocinized (diabetic) rats; format: in vivo; conditions: 25 mg/kg oral at 4, 8 and 24 hours after streptozotocin; sorbitol measured 27 hours after induction of diabetes; compared to untreated animals
Protocol: (§1) The activity of the compounds of the present invention as agents for the control of chronic diabetic complications may be determined by a number of standard biological or pharmacological tests. Suitable tests include (1) measuring their ability to inhibit the enzyme activity of isolated aldose reductase and (2) measuring their ability to reduce or inhibit sorbitol accumulation in the sciatic nerve of acutely streptozotocinized (i.e., diabetic) rats.
The compounds of Examples 1 and 2 were tested for their ability to reduce or inhibit sorbitol accumulation in the sciatic nerve of streptozotocinized (i.e., diabetic) rats by the procedure essentially described in U.S. Pat. No. 3,821,383. In the present study, the amount of sorbitol accumulation in the sciatic nerves was measured 27 hours after induction of diabetes. The compounds were administered orally at the dose levels indicated at 4, 8 and 24 hours following the administration of streptozotocin. The results obtained in this manner are presented as the percent inhibition (%) obtained at a 25 mg/kg dose compared to the untreated animal standard (i.e., the untreated animal where sorbitol levels normally rise from approximately 50-100 mM/g. tissue to as high as 400 mM/g. tissue in the 27-hour test period): […]

[2] = molecular target: T1, aldose reductase (Bos taurus, UniProt P16116); test: inhibition of aldose reductase enzyme activity (partially purified enzyme from calf lens); format: biochemical; conditions: read-out: 50% Inhibitory Concentration
T1 construct: partially purified aldose reductase enzyme obtained from calf lens; from tissue; host or cells: calf lens
Source text: as §1, with “rats. […] Pat. No. 3,821,383 and based on the procedure on Hayman et. al., Journal of Biological Chemistry, 240, 877 (1965). The substrate employed was partially purified aldose reductase enzyme obtained from calf lens.” for “rats.”

Structure (SMILES) | Percent Inhibition at 25 mg/kg [1] | IC50 [2]
O=C1NC(=O)C2(CCCc3occc32)N1 (stereo not shown) [Example 1, Spiro[cyclohexa(b)furan-4,4'-imidazolidine]-2',5'-dione] | 46% | 100 µM
Cc1cc2c(o1)CCCC21NC(=O)NC1=O (stereo not shown) [Example 2, 2-methyl-spiro[cyclohexa(b)furan-4,4'-imidazolidine]-2',5'-dione] | 2% | 100 µM
